Data: patent US4065356A, “Production of antibiotic FR-02A (efrotomycin) by streptomyces lactamdurans” (priority 1977, dated 1977)
“Also recorded” adds a separate entry of the source.

Legend:
[1] = system: PPLO; test: PPLO in pigs; type: in vivo
[2] = system: Staphylococcus aureus (MB 108); test: in vitro activity; type: cell-based
[3] = system: Bacillus subtilis (MB 964); test: in vitro activity; type: cell-based
[4] = system: Streptococcus faecalis 753; test: Antibiotic Spectrum Profile, agar diffusion test; type: cell-based; conditions: Enterococcus faecalis, 1 mg./ml., read-out: Diameters of Inhibition Zones
[5] = system: Vibrio percolans 1272; test: Antibiotic Spectrum Profile, agar diffusion test; type: cell-based; conditions: Comamonas terrigena, 1 mg./ml., read-out: Diameters of Inhibition Zones
[6] = system: Bacillus subtilis (MB 797); test: in vitro activity; type: cell-based
[7] = system: M. gallisepticum; test: in vitro activity; type: cell-based
[8] = system: Proteus vulgaris; test: in vivo test in mice, Proteus vulgaris infection; conditions: infection IP, therapy IP, at time of infection and 6 hours later
Experimental: (§1) *Values in the table are expressed in mg./mouse. Both infections and
(§2) therapeutic doses of FR-02A were administered intraperitoneally. FR-02A
(§3) was administered at time of infection and again 6 hours later.

[9] = system: M. hyorthinis; test: in vitro activity; type: cell-based
[10] = solubility; type: physicochemical; conditions: water-immiscible organic solvents
[11] = system: PPLO; test: PPLO in chickens; type: in vivo
[12] = system: Proteus vulgaris 1012; test: Antibiotic Spectrum Profile, agar diffusion test; type: cell-based; conditions: 1 mg./ml., read-out: Diameters of Inhibition Zones
[13] = system: Staphylococcus aureus (MB 210); test: in vitro activity; type: cell-based
[14] = system: species of Mycoplasma; test: activity against Mycoplasma; type: cell-based
[15] = system: E. coli 60; test: Antibiotic Spectrum Profile, agar diffusion test; type: cell-based; conditions: Escherichia coli, 1 mg./ml., read-out: Diameters of Inhibition Zones
[16] = system: Streptococcus pyogenes; test: in vitro activity; type: cell-based
[17] = system: M. arthritidis; test: in vitro activity; type: cell-based
[18] = system: Sarcina lutea 1101; test: Antibiotic Spectrum Profile, agar diffusion test; type: cell-based; conditions: Micrococcus luteus, 1 mg./ml., read-out: Diameters of Inhibition Zones
[19] = system: PPLO; test: PPLO in cattle; type: in vivo
[20] = system: Erwinia auroseptica 1159; test: Antibiotic Spectrum Profile, agar diffusion test; type: cell-based; conditions: 1 mg./ml., read-out: Diameters of Inhibition Zones
[21] = stability to handling; type: physicochemical; conditions: pale yellow solid
[22] = system: S. aureus 2756; test: Antibiotic Spectrum Profile, agar diffusion test; type: cell-based; conditions: Staphylococcus aureus, 1 mg./ml., read-out: Diameters of Inhibition Zones
[23] = system: bacteria; test: antibacterial activity in vivo in mice; conditions: in words
[24] = system: coccidia; test: activity against coccidia; type: cell-based
[25] = system: gram-positive bacteria; test: antibacterial activity; type: cell-based
[26] = system: Vibrio percolans; test: agar-diffusion bioassay using Vibrio percolans; type: cell-based; conditions: Comamonas terrigena; concentration of 200 μ/ml.; LH-20 product
Experimental: A 0.5 ml. solution of methanol containing 106 mg. of FR-02A obtained from Example 1 above is charged to a 75 ml. bed (1.25 cm. dia. × 56 cm. ht.) of Sephadex LH-20 gel in methanol (Pharmacia Fine Chemicals, Inc., Piscataway, N.J.). The column is developed with methanol. […] Fractions are bioassayed at a 1-10 dilution with 1/2 dia. paper discs on agar-diffusion assay plates seeded with Vibrio percolans. Zones of inhibition are obtained corresponding to the third mass peak (KD = 0.3) detected. The fractions corresponding to the third mass peak are combined and evaporated to yield 43 mg. of FR-02A.
The product when assayed in the above agar-diffusion bioassay using Vibrio percolans gives a 16 mm. zone of inhibition at a concentration of 200 μ/ml. The U.V. absorption in pH 7.0 phosphate buffer was: […]

[27] = system: S. aureus (res. Erythromycin) 1909; test: Antibiotic Spectrum Profile, agar diffusion test; type: cell-based; conditions: Staphylococcus aureus, 1 mg./ml., read-out: Diameters of Inhibition Zones
[28] = system: Klebsiella pneumoniae (MB 1264); test: in vitro activity; type: cell-based
[29] = system: M. synoviae; test: in vitro activity; type: cell-based
[30] = system: coccidia; test: mouse coccidiosis; conditions: in vivo
[31] = system: Streptococcus faecalis; test: in vitro activity; type: cell-based
[32] = system: Proteus vulgaris; test: in vitro activity; type: cell-based
[33] = system: Escherichia coli 1418; test: Antibiotic Spectrum Profile, agar diffusion test; type: cell-based; conditions: 1 mg./ml., read-out: Diameters of Inhibition Zones
[34] = system: Strep. pyogenes; test: in vivo test in mice, Strep. pyogenes infection; conditions: infection IP, therapy IP, at time of infection and 6 hours later
Experimental: as §1, §2, §3

[35] = system: Xanthomonas vesicatoria 815; test: Antibiotic Spectrum Profile, agar diffusion test; type: cell-based; conditions: 1 mg./ml., read-out: Diameters of Inhibition Zones
[36] = system: coccidia; test: chicken coccidiosis; type: in vivo; conditions: most prevalent types
[37] = system: Bordetella bronchiseptica; test: systemic infections produced by Bordetella bronchiseptica in mice; type: in vivo; conditions: orally
[38] = system: Alcaligenes faecalis 10; test: Antibiotic Spectrum Profile, agar diffusion test; type: cell-based; conditions: 1 mg./ml., read-out: Diameters of Inhibition Zones
[39] = growth promotion in animals; type: in vivo, animals such as chickens, sheep and cattle; conditions: feed additive
[40] = system: Aerobacter aerogenes 835; test: Antibiotic Spectrum Profile, agar diffusion test; type: cell-based; conditions: Klebsiella aerogenes, 1 mg./ml., read-out: Diameters of Inhibition Zones
[41] = system: gram-negative bacteria; test: antibacterial activity; type: cell-based

For `CC=CC=CC1OC(O)(C(CC)C(=O)NCC=CC=C(C)C(OC)C(C)C2OC(C=CC=CC=C(C)C(=O)c3c(O)ccn(C)c3=O)C(O)C2O)C(O)C(OC2OC(C)C(OC3OC(C)C(OC)C(O)C3OC)C(OC)C2O)C1(C)C` (centres unmarked) [FR-02A, efrotomycin], the “efficacy against PPLO” value [1] was “effective”, the activity [2] was “Activity was also found” and the activity [3] was “Activity was also found”. The zone of inhibition at 1000 µg/mL [4] was 11 mm, the zone of inhibition at 1000 µg/mL [5] was 21 mm and the activity [6] was “Activity was also found”. For the same compound, the in vitro activity [7] was “effective”, the ED50 [8] was 1.73 mg./mouse and the in vitro activity [9] was “effective”. For the same compound, the “solubility in water-immiscible organic solvents” value [10] was “highly soluble”, the “efficacy against PPLO” value [11] was “effective” and the zone of inhibition at 1000 µg/mL [12] was 10 mm. For the same compound, the activity [13] was “Activity was also found”, the “activity against species of Mycoplasma” value [14] was “shows activity” and the zone of inhibition at 1000 µg/mL [15] was 10 mm. For the same compound, the in vitro activity [16] was “effective”, the in vitro activity [17] was “effective” and the zone of inhibition at 1000 µg/mL [18] was 28 mm. For the same compound, the “efficacy against PPLO” value [19] was “effective”, the zone of inhibition at 1000 µg/mL [20] was 12 mm and the “stability to normal handling” value [21] was “stable to normal handling”. For the same compound, the zone of inhibition at 1000 µg/mL [22] was 23 mm, the “antibacterial activity in vivo” value [23] was “broad spectrum of antibacterial activity” and the activity against coccidia [24] was “shows activity”. For the same compound, the “activity against gram-positive bacteria” value [25] was “shows activity; also recorded: effective”, the zone of inhibition at 200 µg/mL [26] was 16 mm and the zone of inhibition at 1000 µg/mL [27] was 16 mm. The activity [28] was “Activity was also found”, the in vitro activity [29] was “effective” and the “efficacy against mouse coccidiosis” value [30] was “effective”. For the same compound, the in vitro activity [31] was “effective”, the in vitro activity [32] was “effective” and the zone of inhibition at 1000 µg/mL [33] was 15 mm. The ED50 [34] was 0.247 mg./mouse, the zone of inhibition at 1000 µg/mL [35] was 13 mm and the “efficacy against chicken coccidiosis” value [36] was “effective”. For the same compound, the “efficacy in systemic infections produced by Bordetella bronchiseptica” value [37] was “orally effective”, the zone of inhibition at 1000 µg/mL [38] was 19 mm and the growth promotion [39] was “shortens the time required for bringing animals up to marketable weight”. The zone of inhibition at 1000 µg/mL [40] was 13 mm and the “activity against gram-negative bacteria” value [41] was “shows activity; also recorded: effective”.
